Columns and labels:
[1] = system: IL-2-induced STAT5 phosphorylation; assay: IL-2-induced STAT5 phosphorylation in PBMC (Western blot)
GSK3β = GSK3β (Homo sapiens, UniProt P49841); assay: Selectivity assay against a panel of kinases: GSK3β; assay type: biochemical; settings: tested at 1 μM
[2] = system: STAT1 phosphorylation (IFN-α signal pathway); assay: Cellular selectivity assay: IFN-α-stimulated STAT1 phosphorylation in PBMCs; assay type: cell-based, human; settings: doses as high as 10 μM
MCP-1 release = assay: IL-6 stimulated MCP-1 release assay; assay type: cell-based, human
Procedure: (§1) The LPS-induced IL-6 and TNF-α release assay was carried out as follows: frozen PBMCs (from Allcells) were thawed in RPMI1640 (Thermo Fisher) containing 10% FBS and recovered overnight at 37° C. The next day, cells were diluted to 1×10^6 cells/mL and seeded (500 μL) in 6-well plates. Compounds or DMSO (5 μL, serially diluted in DMSO) were added to the plates and incubated with cells for 2 h at 37° C., followed by stimulation with LPS (5 μL, 1 μg/mL) and incubation for 24 h at 37° C. in 5% CO2. Supernatants were collected for determination of IL-6 and TNF-α levels using human IL-6 or human THF-α DuoSet ELISA Kits (R&D Systems) according to the manufacturer's instructions.
IL-6 stimulated inflammatory cytokine MCP-1 release assay was performed in a similar way.

PKCα = PKCα (Homo sapiens, UniProt P17252); assay: Selectivity assay against a panel of kinases: PKCα; assay type: biochemical; settings: tested at 1 μM
IL-6 release = assay: LPS-induced IL-6 release assay in PBMCs (ELISA); assay type: cell-based, human; settings: LPS-challenged PBMCs, 24 h
Procedure: as §1

STAT5 phosphorylation = assay: Cell washout experiment, IL-15-stimulated CTLL-2 cells; assay type: cell-based, Mouse; settings: CTLL-2, 2 h treatment, washed three times, IL-15 30 min
Procedure: The washout procedures are as follows: CTLL-2 cells were treated with compounds for 2 hours. Then, for washout groups, cells were washed three times with PBS. The non-washout groups were kept constant. Cells were then stimulated with IL-15 for 30 min, lysed, and subjected to standard Western blot. Cells, treated with compounds, were extensively washed with PBS.

PKCγ = PKCγ (Homo sapiens, UniProt P05129); assay: Selectivity assay against a panel of kinases: PKCγ; assay type: biochemical; settings: tested at 1 μM
[3] = system: STAT3 phosphorylation (IL-6 signal pathway); assay: Cellular selectivity assay: IL-6-stimulated STAT3 phosphorylation in PBMCs; assay type: cell-based, human; settings: IL-6, doses as high as 10 μM
panel of kinases = settings: tested at 1 μM
TNF-α release = assay: LPS-induced TNF-α release assay in PBMCs (ELISA); assay type: cell-based, human; settings: LPS-challenged PBMCs, 24 h
Procedure: as §1

[4] = system: IL-15-induced STAT5 phosphorylation; assay: IL-15-induced STAT5 phosphorylation in PBMC (Western blot); assay type: cell-based, human
[5] = system: phosphorylation of downstream substrates of JAKs; settings: PBMCs; IL-15, IL-6, IFN-α

GSK3β, sequence (P49841 whole entry, species assumed): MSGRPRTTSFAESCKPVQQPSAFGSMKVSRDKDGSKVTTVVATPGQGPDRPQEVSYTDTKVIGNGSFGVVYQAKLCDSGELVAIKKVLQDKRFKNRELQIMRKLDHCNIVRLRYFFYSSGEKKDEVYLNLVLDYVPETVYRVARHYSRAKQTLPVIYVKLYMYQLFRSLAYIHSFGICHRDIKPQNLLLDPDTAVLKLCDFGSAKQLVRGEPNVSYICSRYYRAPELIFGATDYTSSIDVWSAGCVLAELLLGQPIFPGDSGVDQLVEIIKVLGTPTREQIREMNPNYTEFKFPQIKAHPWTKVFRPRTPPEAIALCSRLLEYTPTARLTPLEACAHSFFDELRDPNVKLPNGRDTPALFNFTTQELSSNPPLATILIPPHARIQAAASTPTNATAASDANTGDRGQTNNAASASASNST

## C=CC(=O)N1CCN(c2ccc([N+](=O)[O-])c(C3=C(c4c[nH]c5ccccc45)C(=O)NC3=O)c2)CC1 [Compound 32, 3-(5-(4-acryloylpiperazin-1-yl)-2-(nitro)phenyl)-4-(1H-indol-3-yl)-1H-pyrrole-2,5-dione]
[1]
  inhibitory activity against IL-2-induced STAT5 phosphorylation compared with NIBR3049: higher inhibitory activity
GSK3β
  inhibition at 1 µM: > 50%
[2]
  inhibition of STAT1 phosphorylation: only partial inhibition
MCP-1 release
  effect on IL-6-induced MCP-1 release: did not inhibit
PKCα
  inhibition at 1 µM: > 50%
IL-6 release
  effect on LPS-induced release of IL-6: significantly inhibited
STAT5 phosphorylation
  inhibition of STAT5 phosphorylation after washing out with PBS: sustained inhibition of STAT5 phosphorylation
PKCγ
  inhibition at 1 µM: > 50%
[3]
  inhibition of STAT3 phosphorylation: only partial inhibition
Panel of kinases
  inhibition of most kinases of the panel: no more than 50%
TNF-α release
  effect on LPS-induced release of TNF-α: significantly inhibited
[4]; PBMC
  inhibitory activity against IL-15-induced STAT5 phosphorylation compared with NIBR3049: higher inhibitory activity
[4]; PBMCs, IL-15 stimulation
  concentration that effectively abrogated phosphorylation of STAT5: 300 nM

## CC(C)(O)C(=O)N1CCN(c2ccc(C(F)(F)F)c(C3=C(c4c[nH]c5ccccc45)C(=O)NC3=O)c2)CC1 [NIBR3049, reference compound]
STAT5 phosphorylation
  inhibition of STAT5 phosphorylation after washing out with PBS: almost lost after washing out

## Tofacitinib [reference compound]
MCP-1 release
  effect on IL-6-induced MCP-1 release: did not inhibit
IL-6 release
  effect on LPS-induced release of IL-6: increased cytokine production in different degrees
STAT5 phosphorylation
  inhibition of STAT5 phosphorylation after washing out with PBS: almost lost after washing out
[5]
  cellular selectivity among JAKs (three cytokines): did not show obvious selectivity
TNF-α release
  effect on LPS-induced release of TNF-α: increased cytokine production in different degrees

From US11578060B2, “JAK3 selective inhibitor” (PEKING UNIVERSITY SHENZHEN GRADUATE SCHOOL, priority 2018, dated 2023)
